Assay results taken from PubChem BioAssay AID248 (DTP/NCI, 2004).
Where “and” joins values, the source holds several entries; their conditions need not be identical. Identical values can stand only once. Inconclusive results and toxic doses are left out. No stated cut-off is given here; in the data, active means T/C of 150% or more; inactive means T/C below 125%.

Tested on: L1210 leukemia ip in BDF1 mice, survival T/C
Assay: NCI In Vivo Anticancer Drug Screen. Data for tumor model L1210 Leukemia (intraperitoneal) in B6D2F1 (BDF1) mice
Conditions: endpoint: mean survival time, higher = longer survival
How it was run: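 In this screen, tumor-bearing mice given compound are compared to those given vehicle, and their survival values are reported as a treated-to-control quotient.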

Measured: T/C

CN(C)c1ccc(Nc2c3ccccc3nc3ccccc23)cc1
inactive: dose: 3.13 mg/kg/injection, schedule: Q03HX040 (ip), vehicle: saline 106 % of control | dose: 3.75 mg/kg/injection, schedule: Q01DX Z (ip), vehicle: saline 107 % of control | dose: 3.75 mg/kg/injection, schedule: Q01DX Z (oral), vehicle: olive oil, sesame oil, peanut oil 116 % of control | dose: 5.0 mg/kg/injection, schedule: Q01DX005 (ip), vehicle: saline 107 % of control | dose: 5.0 mg/kg/injection, schedule: Q01DX009 (ip), vehicle: saline 107 % of control | dose: 5.0 mg/kg/injection, schedule: Q01DX009 (sc), vehicle: saline 101 % of control | dose: 6.12 mg/kg/injection, schedule: Q03HX008 (ip), vehicle: saline 107 % of control | dose: 6.25 mg/kg/injection, schedule: Q03HX008 (ip), vehicle: saline 104 % of control | dose: 6.25 mg/kg/injection, schedule: Q03HX016 (ip), vehicle: saline 103 % of control | dose: 7.0 mg/kg/injection, schedule: Q01DX Z (sc), vehicle: steriod suspending solution 104 % of control | dose: 7.5 mg/kg/injection, schedule: Q01DX Z (ip), vehicle: saline 110 % of control | dose: 10.0 mg/kg/injection, schedule: Q01DX005 (ip), vehicle: saline 108 % of control | dose: 10.0 mg/kg/injection, schedule: Q01DX009 (ip), vehicle: saline 117 % of control | dose: 10.0 mg/kg/injection, schedule: Q01DX009 (oral), vehicle: saline 118 % of control | dose: 10.0 mg/kg/injection, schedule: Q01DX009 (sc), vehicle: saline 102 % of control | dose: 10.0 mg/kg/injection, schedule: Q01DX Z (sc), vehicle: steriod suspending solution 115 % of control | dose: 12.5 mg/kg/injection, schedule: Q01DX Z (im), vehicle: saline 108 % of control | dose: 12.5 mg/kg/injection, schedule: Q04DX003 (ip), vehicle: saline 104 % of control | dose: 12.5 mg/kg/injection, schedule: Q06HX004 (ip), vehicle: saline 115 % of control | dose: 12.5 mg/kg/injection, schedule: Q#A X Z (oral), vehicle: saline 112 % of control | dose: 15.0 mg/kg/injection, schedule: Q01DX Z (oral), vehicle: olive oil, sesame oil, peanut oil 115 % of control | dose: 15.0 mg/kg/injection, schedule: Q01DX Z (sc), vehicle: steriod suspending solution 107 % of control | dose: 16.0 mg/kg/injection, schedule: Q01DX Z (ip), vehicle: carboxymethylcellulose (CMC) 112 % of control | dose: 17.5 mg/kg/injection, schedule: Q#A X Z (ip), vehicle: saline 116 % of control | dose: 19.0 mg/kg/injection, schedule: Q03DX006 (oral), vehicle: saline 112 % of control | dose: 20.0 mg/kg/injection, schedule: Q01DX009 (oral), vehicle: saline 101 % of control | dose: 20.0 mg/kg/injection, schedule: Q01DX009 (sc), vehicle: saline 100 % of control | dose: 22.5 mg/kg/injection, schedule: Q01DX009 (ip), vehicle: saline 120 % of control | dose: 23.0 mg/kg/injection, schedule: Q01DX Z (sc), vehicle: steriod suspending solution 115 % of control and 119 % of control | dose: 24.0 mg/kg/injection, schedule: Q01DX Z (ip), vehicle: carboxymethylcellulose (CMC) 120 % of control | dose: 24.0 mg/kg/injection, schedule: Q01DX Z (ip), vehicle: saline 111 % of control | dose: 25.0 mg/kg/injection, schedule: Q01DX001 (oral), vehicle: saline 96 % of control | dose: 25.0 mg/kg/injection, schedule: Q01DX001 (sc), vehicle: saline 96 % of control | dose: 25.0 mg/kg/injection, schedule: Q01DX005 (ip), vehicle: Klucel (hydroxypropylcellulose) (HPC) 112 % of control | dose: 25.0 mg/kg/injection, schedule: Q01DX005 (ip), vehicle: other 108 % of control and 114 % of control | dose: 25.0 mg/kg/injection, schedule: Q01DX009 (ip), vehicle: saline 116 % of control | dose: 25.0 mg/kg/injection, schedule: Q01DX Z (im), vehicle: saline 108 % of control | dose: 25.0 mg/kg/injection, schedule: Q01DX Z (oral), vehicle: saline 120 % of control | dose: 27.0 mg/kg/injection, schedule: Q01DX Z (oral), vehicle: saline 115 % of control | dose: 30.0 mg/kg/injection, schedule: Q01DX Z (ip), vehicle: olive oil, sesame oil, peanut oil 116 % of control | dose: 30.0 mg/kg/injection, schedule: Q01DX Z (sc), vehicle: olive oil, sesame oil, peanut oil 114 % of control | dose: 30.0 mg/kg/injection, schedule: Q01DX Z (sc), vehicle: saline 114 % of control | dose: 35.0 mg/kg/injection, schedule: Q01DX Z (ip), vehicle: carboxymethylcellulose (CMC) 118 % of control | dose: 35.0 mg/kg/injection, schedule: Q01DX Z (ip), vehicle: saline 101 % of control and 111 % of control | dose: 35.0 mg/kg/injection, schedule: Q01DX Z (sc), vehicle: steriod suspending solution 113 % of control | dose: 37.0 mg/kg/injection, schedule: Q03DX006 (oral), vehicle: saline 118 % of control | dose: 40.0 mg/kg/injection, schedule: Q01DX009 (sc), vehicle: saline 105 % of control | dose: 50.0 mg/kg/injection, schedule: Q01DX001 (oral), vehicle: saline 105 % of control | dose: 50.0 mg/kg/injection, schedule: Q01DX001 (sc), vehicle: saline 97 % of control | dose: 50.0 mg/kg/injection, schedule: Q01DX005 (ip), vehicle: other 112 % of control | dose: 50.0 mg/kg/injection, schedule: Q01DX Z (im), vehicle: saline 116 % of control | dose: 50.0 mg/kg/injection, schedule: Q01DX Z (oral), vehicle: saline 117 % of control | dose: 50.0 mg/kg/injection, schedule: Q04DX003 (ip), vehicle: Klucel (hydroxypropylcellulose) (HPC) 111 % of control | dose: 50.0 mg/kg/injection, schedule: Q04DX003 (ip), vehicle: other 108 % of control and 119 % of control | dose: 50.0 mg/kg/injection, schedule: Q#A X Z (oral), vehicle: saline 118 % of control | dose: 53.0 mg/kg/injection, schedule: Q01DX Z (sc), vehicle: saline 113 % of control | dose: 53.0 mg/kg/injection, schedule: Q01DX Z (sc), vehicle: steriod suspending solution 115 % of control | dose: 53.3 mg/kg/injection, schedule: Q01DX Z (ip), vehicle: carboxymethylcellulose (CMC) 115 % of control | dose: 53.3 mg/kg/injection, schedule: Q01DX Z (ip), vehicle: methylcellulose (MC) 111 % of control | dose: 60.0 mg/kg/injection, schedule: Q01DX Z (oral), vehicle: olive oil, sesame oil, peanut oil 120 % of control | dose: 60.0 mg/kg/injection, schedule: Q01DX Z (sc), vehicle: olive oil, sesame oil, peanut oil 117 % of control | dose: 80.0 mg/kg/injection, schedule: Q01DX Z (ip), vehicle: methylcellulose (MC) 95 % of control | dose: 80.0 mg/kg/injection, schedule: Q01DX Z (sc), vehicle: saline 107 % of control | dose: 90.0 mg/kg/injection, schedule: Q01DX009 (ip), vehicle: saline 119 % of control | dose: 100.0 mg/kg/injection, schedule: Q01DX001 (oral), vehicle: saline 112 % of control | dose: 100.0 mg/kg/injection, schedule: Q01DX001 (sc), vehicle: saline 108 % of control | dose: 100.0 mg/kg/injection, schedule: Q01DX005 (ip), vehicle: other 100 % of control | dose: 100.0 mg/kg/injection, schedule: Q04DX003 (ip), vehicle: other 112 % of control | dose: 105.0 mg/kg/injection, schedule: Q01DX Z (ip), vehicle: saline 114 % of control | dose: 120.0 mg/kg/injection, schedule: Q01DX Z (oral), vehicle: olive oil, sesame oil, peanut oil 111 % of control | dose: 120.0 mg/kg/injection, schedule: Q01DX Z (sc), vehicle: saline 120 % of control | dose: 125.0 mg/kg/injection, schedule: Q01DX001 (ip), vehicle: Klucel (hydroxypropylcellulose) (HPC) 115 % of control | dose: 125.0 mg/kg/injection, schedule: Q01DX001 (ip), vehicle: saline 111 % of control | dose: 135.0 mg/kg/injection, schedule: Q#A X Z (ip), vehicle: saline 97 % of control | dose: 175.0 mg/kg/injection, schedule: Q01DX001 (oral), vehicle: saline 108 % of control and 121 % of control | dose: 175.0 mg/kg/injection, schedule: Q07DX003 (oral), vehicle: saline 117 % of control | dose: 180.0 mg/kg/injection, schedule: Q01DX Z (ip), vehicle: carboxymethylcellulose (CMC) 96 % of control and 108 % of control and 110 % of control | dose: 180.0 mg/kg/injection, schedule: Q01DX Z (sc), vehicle: saline 97 % of control | dose: 200.0 mg/kg/injection, schedule: Q01DX001 (oral), vehicle: saline 107 % of control | dose: 200.0 mg/kg/injection, schedule: Q01DX001 (sc), vehicle: saline 103 % of control | dose: 245.0 mg/kg/injection, schedule: Q01DX Z (ip), vehicle: saline 110 % of control | dose: 400.0 mg/kg/injection, schedule: Q01DX Z (im), vehicle: saline 93 % of control | dose: 405.0 mg/kg/injection, schedule: Q01DX Z (ip), vehicle: saline 100 % of control and 113 % of control | dose: 480.0 mg/kg/injection, schedule: Q01DX Z (sc), vehicle: saline 109 % of control | dose: 540.0 mg/kg/injection, schedule: Q01DX Z (ip), vehicle: saline 119 % of control | dose: 600.0 mg/kg/injection, schedule: Q03DX006 (oral), vehicle: saline 101 % of control | dose: 608.0 mg/kg/injection, schedule: Q01DX Z (ip), vehicle: saline 114 % of control | dose: 700.0 mg/kg/injection, schedule: Q01DX001 (oral), vehicle: saline 115 % of control | dose: 912.0 mg/kg/injection, schedule: Q01DX Z (ip), vehicle: saline 115 % of control | dose: 1000.0 mg/kg/injection, schedule: Q01DX001 (ip), vehicle: Klucel (hydroxypropylcellulose) (HPC) 109 % of control | dose: 1260.0 mg/kg/injection, schedule: Q01DX Z (ip), vehicle: saline 119 % of control | dose: 1400.0 mg/kg/injection, schedule: Q01DX001 (oral), vehicle: saline 109 % of control
